Measurements published in US7714017B2, “Carboxylic acid peri-substituted bicyclics for occlusive artery disease” (Decode Genetics, EHF, priority 2004, dated 2010).
pIC50: −log10 of the molar value.

The compounds below were run against T1, prostanoid EP3 receptors (Homo sapiens, UniProt P43115) (assay: binding on prostanoid EP3 receptors (method of Abramovitz et al.)). Settings: Chart 1, read-out: Activity (EP3 receptor binding IC50 class).
T1 sequence (P43115 1-390): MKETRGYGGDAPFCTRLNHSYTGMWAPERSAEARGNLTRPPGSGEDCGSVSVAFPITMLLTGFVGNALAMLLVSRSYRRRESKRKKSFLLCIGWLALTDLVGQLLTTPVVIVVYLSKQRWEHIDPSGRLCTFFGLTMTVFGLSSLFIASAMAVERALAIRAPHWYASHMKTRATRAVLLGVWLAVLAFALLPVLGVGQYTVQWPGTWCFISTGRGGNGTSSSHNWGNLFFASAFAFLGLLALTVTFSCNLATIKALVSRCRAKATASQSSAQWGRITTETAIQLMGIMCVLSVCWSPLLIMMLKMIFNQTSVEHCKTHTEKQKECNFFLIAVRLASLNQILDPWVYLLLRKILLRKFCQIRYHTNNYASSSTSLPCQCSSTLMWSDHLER
Description: (§1) The compounds of the invention were assayed for their binding on prostanoid EP3 receptors according to the method of Abramovitz et al. [Bioch. Biophys. Acta, 1473, 285-293 (2000)]. […] Compounds with IC50<1 μM are shown as +++; compounds with IC50 1-10 μM are shown as ++; and compounds with IC50>10 μM are shown as +.
as §1, with “Acta.” for “Acta,”
Compound Cn1cc(/C=C/C(=O)O)c2c(Oc3ccc(Cl)c(F)c3)cccc21 [Compound A43, (E)-3-[4-(4-Chloro-3-fluoro-phenoxy)-1-methyl-1H-indol-3-yl]-acrylic acid] has a pIC50 greater than 6.00.
CC12CCCC(/C=C/C(=O)O)=C1N(Cc1ccc(Cl)c(Cl)c1)C(=O)C2 (stereo not shown) [Compound A34, (E)-3-[1-(3,4-Dichloro-benzyl)-3a-methyl-2-oxo-2,3,3a,4,5,6-hexahydro-1H-indol-7-yl]-acrylic acid] gave a pIC50 greater than 6.00.
Cc1cn(Cc2ccc(Cl)cc2Cl)c2c(/C=C/C(=O)O)cc(F)cc12 [Compound A31, (E)-3-[1-(2,4-dichloro-benzyl)-5-fluoro-3-methyl-1H-indol-7-yl]-acrylic acid] showed a pIC50 greater than 6.00.
In the case of O=Cc1cn(Cc2ccc(Cl)cc2Cl)c2c(/C=C/C(=O)O)cccc12 [Compound A11, (E)-3-[1-(2,4-Dichloro-benzyl)-3-formyl-1H-indol-7-yl]-acrylic acid], the pIC50 was greater than 6.00.
With O=C(O)CCc1csc2ncc(C=Cc3ccc4ccccc4c3)n12 (mixture of isomers) [Compound A23, 3-[5-((E)-2-Naphthalen-2-yl-vinyl)-imidazo[2,1-b]thiazol-3-yl]-propionic acid] the pIC50 was 5.00 to 6.00.
O=C(O)C=Cc1cccc2c1N(Cc1ccc3ccccc3c1)C(=O)C2(O)C(F)(F)F (stereo not shown) [Compound A15, 3-(3-Hydroxy-1-naphthalen-2-ylmethyl-2-oxo-3-trifluoromethyl-2,3-dihydro-1H-indol-7-yl)-acrylic acid] was tested, and the pIC50 was 5.00 to 6.00.
For Cn1cc(/C=C/C(=O)O)c2c(Oc3ccc4ccccc4c3)cccc21 [Compound A44, (E)-3-[1-Methyl-4-(naphthalen-2-yloxy)-1H-indol-3-yl]-acrylic acid], the pIC50 was greater than 6.00.
With CN(C)Cc1cn(Cc2ccc3ccccc3c2)c2c(/C=C/C(=O)O)cccc12 [Compound A55] the pIC50 was 5.00 to 6.00.
For O=C(O)/C=C/c1cccc2c1N(Cc1ccc(Cl)cc1Cl)C(=O)C2=O [Compound A17, (E)-3-[1-(2,4-Dichloro-benzyl)-2,3-dioxo-2,3-dihydro-1H-indol-7-yl]-acrylic acid], the pIC50 was 5.00 to 6.00.
Compound CC12CCCC(/C=C/C(=O)O)=C1N(Cc1ccc(Cl)cc1Cl)C(=O)C2 (stereo not shown) [Compound A32, (E)-3-[1-(2,4-Dichloro-benzyl)-3a-methyl-2-oxo-2,3,3a,4,5,6-hexahydro-1H-indol-7-yl]-acrylic acid] has a pIC50 greater than 6.00.
In the case of Cn1nc(NC(=O)c2ccc3ccccc3c2)c2c(/C=C/C(=O)O)cccc21 [Compound A26, (E)-3-{1-Methyl-3-[(naphthalene-2-carbonyl)-amino]-1H-indazol-4-yl}-acrylic acid], the pIC50 was 5.00 to 6.00.
In the case of O=C(O)COc1cccc2oc(=O)n(Cc3ccc(Cl)cc3Cl)c12 [Compound A07], the pIC50 was 5.00 to 6.00.
For O=C(O)/C=C/c1cccc2ccn(Cc3ccc4ccccc4c3)c12 [Compound A53, (E)-3-(1-Naphthalen-2-ylmethyl-1H-indol-7-yl)-acrylic acid], the pIC50 was greater than 6.00.
Cc1cc2c(=O)n(C)c(=O)n(CCC(=O)O)c2n1Cc1ccc(Cl)cc1Cl [Compound A63, 3-[7-(2,4-Dichloro-benzyl)-3,6-dimethyl-2,4-dioxo-2,3,4,7-tetrahydro-pyrrolo[2,3-d]pyrimidin-1-yl]-propionic acid] showed a pIC50 of 5.00 to 6.00.
With Cc1ccc(C)c(Cn2c(=O)oc3cccc(OCC(=O)O)c32)c1 [Compound A08, [3-(2,5-Dimethyl-benzyl)-2-oxo-2,3-dihydro-benzooxazol-4-yloxy]-acetic acid] the pIC50 was 5.00 to 6.00.
In the case of Cn1cc(/C=C/C(=O)O)c2c(Oc3ccc(F)cc3Cl)cccc21 [Compound A46, (E)-3-[4-(2-Chloro-4-fluoro-phenoxy)-1-methyl-1H-indol-3-yl]-acrylic acid], the pIC50 was 5.00 to 6.00.
Cn1cc(/C=C/C(=O)O)c2c(Oc3ccc(F)c(F)c3)cccc21 [Compound A42, (E)-3-[4-(3,4-Difluoro-phenoxy)-1-methyl-1H-indol-3-yl]-acrylic acid] was tested, and the pIC50 was 5.00 to 6.00.
For CC12CCCC(/C=C/C(=O)O)=C1N(Cc1ccc(F)cc1)C(=O)C2 (stereo not shown) [Compound A28, (E)-3-[1-(4-Fluoro-benzyl)-3a-methyl-2-oxo-2,3,3a,4,5,6-hexahydro-1H-indol-7-yl]-acrylic acid], the pIC50 was greater than 6.00.
Work on O=C(O)/C=C/c1cccc2c1N(Cc1ccc(Cl)cc1Cl)C(=O)C2(CO)CO [Compound A62, (E)-3-[1-(2,4-Dichloro-benzyl)-3,3-bis-hydroxymethyl-2-oxo-2,3-dihydro-1H-indol-7-yl]-acrylic acid] yielded a pIC50 greater than 6.00.
O=C(O)/C=C/c1cnn2ccn(Cc3ccc4ccccc4c3)c12 [Compound A02, (E)-3-(1-Naphthalen-2-ylmethyl-1H-imidazo[1,2-b]pyrazol-7-yl)-acrylic acid] gave a pIC50 of 5.00 to 6.00.
Compound CC12CCCC(/C=C/C(=O)O)=C1N(Cc1ccc3ccccc3c1)C(=O)C2 (stereo not shown) [Compound A24, (E)-3-(3a-Methyl-1-naphthalen-2-ylmethyl-2-oxo-2,3,3a,4,5,6-hexahydro-1H-indol-7-yl)-acrylic acid] has a pIC50 of 5.00 to 6.00.
CC(C)c1cn(Cc2ccc(Cl)cc2Cl)c2c(CCC(=O)O)cccc12 [Compound A14] was tested, and the pIC50 was 5.00 to 6.00.
For Cc1cn(Cc2cn3ccccc3n2)c2c(/C=C/C(=O)O)cc(F)cc12 [Compound A57, (E)-3-(5-Fluoro-1-imidazo[1,2-a]pyridin-2-ylmethyl-3-methyl-1H-indol-7-yl)-acrylic acid], the pIC50 was 5.00 to 6.00.
O=C(O)CCc1cccc2ccn(Cc3ccc4ccccc4c3)c12 [Compound A58, 3-(1-Naphthalen-2-ylmethyl-1H-indol-7-yl)-propionic acid] was tested, and the pIC50 was greater than 6.00.
Compound CN1C(=O)C(C(=O)Nc2ccc(Cl)cc2Cl)c2c(/C=C/C(=O)O)cccc21 (stereo not shown) [Compound A33, (E)-3-[3-(2,4-Dichloro-phenylcarbamoyl)-1-methyl-2-oxo-2,3-dihydro-1H-indol-4-yl]-acrylic acid] has a pIC50 of 5.00 to 6.00.
Compound Cn1cc(/C=C/C(=O)O)c2c(Oc3ccc(Cl)c(Cl)c3)cccc21 [Compound A39, (E)-3-[4-(3,4-Dichloro-phenoxy)-1-methyl-1H-indol-3-yl]-acrylic acid] has a pIC50 of 5.00 to 6.00.
For COCc1cn(Cc2ccc(Cl)cc2Cl)c2c(/C=C/C(=O)O)cccc12 [Compound A12, (E)-3-[1-(2,4-Dichloro-benzyl)-3-methoxymethyl-1H-indol-7-yl]-acrylic acid], the pIC50 was greater than 6.00.
CC12CCCC(/C=C/C(=O)O)=C1N(Cc1ccc(F)c(F)c1)C(=O)C2 (stereo not shown) [Compound A30, (E)-3-[1-(3,4-Difluoro-benzyl)-3a-methyl-2-oxo-2,3,3a,4,5,6-hexahydro-1H-indol-7-yl]-acrylic acid] gave a pIC50 of 5.00 to 6.00.
Compound O=C(O)COc1cccc2ncn(Cc3ccc4ccccc4c3)c12 [Compound A22, (3-Naphthalen-2-ylmethyl-3H-benzoimidazol-4-yloxy)-acetic acid] has a pIC50 of less than 5.00.
Work on O=C(O)/C=C/c1cccc2c1N(Cc1ccc3ccccc3c1)C(=O)C2=O [Compound A56, (E)-3-(1-Naphthalen-2-ylmethyl-2,3-dioxo-2,3-dihydro-1H-indol-7-yl)-acrylic acid] yielded a pIC50 greater than 6.00.
O=C(O)C=Cc1cccc2c1N(Cc1ccc(Cl)cc1Cl)C(=O)C21OCCO1 [Compound A16] gave a pIC50 greater than 6.00.
With O=C(O)COc1cccc2oc(=O)n(Cc3ccc4c(c3)OCO4)c12 [Compound A05, (3-Benzo[1,3]dioxol-5-ylmethyl-2-oxo-2,3-dihydro-benzooxazol-4-yloxy)-acetic acid] the pIC50 was 5.00 to 6.00.
For O=C(O)COc1cccc2oc(=O)n(Cc3ccc(Cl)c(Cl)c3)c12 [Compound A06, [3-(3,4-Dichloro-benzyl)-2-oxo-2,3-dihydro-benzooxazol-4-yloxy]-acetic acid], the pIC50 was 5.00 to 6.00.
For CC1(C)C(=O)N(Cc2ccc(Cl)cc2Cl)c2c(/C=C/C(=O)O)cccc21 [Compound A19, (E)-3-[1-(2,4-Dichloro-benzyl)-3,3-dimethyl-2-oxo-2,3-dihydro-1H-indol-7-yl]-acrylic acid], the pIC50 was 5.00 to 6.00.
Cn1cc(/C=C/C(=O)O)c2c(Oc3ccc(Cl)cc3)cccc21 [Compound A41, (E)-3-[4-(4-Chloro-phenoxy)-1-methyl-1H-indol-3-yl]-acrylic acid] was tested, and the pIC50 was 5.00 to 6.00.
Compound Cn1cc(/C=C/C(=O)O)c2c(Oc3ccc(F)c(Cl)c3)cccc21 [Compound A38, (E)-3-[4-(3-Chloro-4-fluoro-phenoxy)-1-methyl-1H-indol-3-yl]-acrylic acid] has a pIC50 of 5.00 to 6.00.
Compound Cn1cc(/C=C/C(=O)O)c2c(Oc3ccc(F)cc3F)cccc21 [Compound A37, (E)-3-[4-(2,4-Difluoro-phenoxy)-1-methyl-1H-indol-3-yl]-acrylic acid] has a pIC50 greater than 6.00.
Compound Cn1cc(/C=C/C(=O)O)c2c(Oc3ccc(Cl)cc3Cl)cccc21 [Compound A40, (E)-3-[4-(2,4-Dichloro-phenoxy)-1-methyl-1H-indol-3-yl]-acrylic acid] has a pIC50 greater than 6.00.
Compound COc1cccc(CN2C(=O)CC3(C)CCCC(/C=C/C(=O)O)=C23)c1 (stereo not shown) [Compound A29, (E)-3-[1-(3-Methoxy-benzyl)-3a-methyl-2-oxo-2,3,3a,4,5,6-hexahydro-1H-indol-7-yl]-acrylic acid] has a pIC50 greater than 6.00.
Work on CC(=O)c1cn(Cc2ccc(Cl)cc2Cl)c2c(/C=C/C(=O)O)cccc12 [Compound A13, (E)-3-[3-Acetyl-1-(2,4-dichloro-benzyl)-1H-indol-7-yl]-acrylic acid] yielded a pIC50 of 5.00 to 6.00.
